According to patent US4550115A, “Certain piperidino-lower-alkylene esters of 3-methylflavone-8-carboxylates possessing smooth muscle relaxant activity” (Recordati S.A., Chemical & Pharmaceutical Company, priority 1981, dated 1985):
Counter-ions that a name gives are not always drawn. Like-named read-outs stand apart in the source and are kept apart here.

Key:
[1] = test system: guinea pig depolarized taenia coli; assay: Calcium blocking activity on guinea pig depolarized taenia coli (Ferrari and Carpenedo); settings: Cavia porcellus; cumulative CaCl2, K+-depolarized guinea pig taenia coli; read-out: Calcium blocking activity ED50
Procedure: The calcium blocking activity was tested on guinea pig depolarized taenia coli, according to the method described by Ferrari and Carpenedo [Arch. Int. Pharmacodyn., 174, 223 (1968)]. The guinea pig taenia coli was allowed to stabilize in Tyrode solution without Ca^++. It was then washed with K2 SO4 Ringer solution and afterwards perfused with KNO3 Ringer. Cumulative concentrations of CaCl2 were added to the organ bath in absence or presence of the test drug.

guinea pig ileum = assay: Antispastic or antispasmodic activity, BaCl2-induced contraction of guinea pig ileum (Magnus method); settings: Cavia porcellus, 1 min, read-out: ED50 (antispastic or antispasmodic activity)
Procedure: The antispastic or antispasmodic activity was evaluated following the Magnus method [Pflugers Arch. […] Two equal contractions were induced by BaCl2 at a concentration ranging between 1 and 4.10^-4 M in guinea pig ileum maintained at 30° C. in Ringer solution and aerated with Carbogen.
The test drug was administered and, one minute later, BaCl2 in the same concentration. The inhibition of the contraction was observed.

[2] = test system: guinea pig isolated ureter; assay: Antispastic activity, spontaneous mobility of guinea pig isolated ureter (Trendelemburg method); settings: Cavia porcellus
Procedure: The smooth muscle relaxant activity of the novel flavone derivatives was also measured through the spontaneous mobility of guinea pig isolated ureter. […] The ureter was allowed to stabilize in Tyrode solution with the upper part closed and the inner part connected to a pressure transducer. The test drugs were given cumulatively and the spontaneous circular and longitudinal contractions of the ureter were measured.

physchem = settings: phosphate buffer, pH 7.4
Procedure: Such stability was measured at 37° C. in simulated gastric fluid (U.S. Pat. No. XX, 1105, 1980) and in phosphate buffer (pH 7.4) by spectrodensitometric determination of 3-methylflavone-8-carboxylic acid resulting from eventual hydrolysis.

in vivo = settings: mouse
[3] = guinea pig ileum, 30° C., BaCl2 1 to 4.10^-4 M, drug one minute before BaCl2, inhibition of contraction
[4] = circular contractions, cumulative dosing, read-out: Antispastic Activity Isolated Ureter ED50, circular contractions
[5] = longitudinal contractions, cumulative dosing, read-out: Antispastic Activity Isolated Ureter ED50, longitudinal contractions

Row | Compound | IC50 [1] [µM] | IC50 (guinea pig ileum; [3]) [µM] | IC50 [2, 4] [µM] | IC50 [2, 5] [µM] | remaining at 1 h (physchem) [%] | remaining at 3 h (physchem) [%] | LD50 (in vivo; ip) [µmol/kg] | LD50 (in vivo; po) [µmol/kg] | IC50 (guinea pig ileum) [µM] | IC50 ([2]; read-out: Antispastic Activity Isolated Ureter ED50, circular contractions) [µM] | IC50 ([2]; read-out: Antispastic Activity Isolated Ureter ED50, longitudinal contractions) [µM]
1 | Cc1c(-c2ccccc2)oc2c(C(=O)OC(C)(C)CN3CCCCC3C)cccc2c1=O (centres unmarked) [Active compound 6] | 7.5 | 3.4 | 5.3 | 2.5 | 100 | 100 |  |  |  |  | 
2 | Cc1c(-c2ccccc2)oc2c(C(=O)OCCN3CCCCC3)cccc2c1=O [FLAVOXATE, 2-(N-piperidino)ethyl 3-methylflavone-8-carboxylate hydrochloride, reference compound] | 25 | 5.6 |  |  | 22 | 10 | 900 | 1890 |  |  | 
3 | Cc1c(-c2ccccc2)oc2c(C(=O)O[C@@H]3CCCC[C@@H]3N3CCCCC3)cccc2c1=O.Cl (relative stereo) [Active compound 8, cis-2-piperidino-cyclohexyl 3-methyl-flavone-8-carboxylate hydrochloride] | 7.3 | 2.7 | 5 | 2.5 | 85 | 70 |  | 2160 |  |  | 
4 | Cc1c(-c2ccccc2)oc2c(C(=O)OC3CC4CCC(C3)N4C)cccc2c1=O (centres unmarked) [Active compound 12, 3-tropinyl-3-methylflavone-8-carboxylate] |  |  |  |  | 100 | 100 | 420 | 950 | 4.3 | 20 | 9
5 | Cc1c(-c2ccccc2)oc2c(C(=O)OC3CCCCC3CN3CCCCC3)cccc2c1=O (centres unmarked) [Active compound 9, 2-piperidinomethyl cyclohexyl] | 26 | 4 |  |  | 88 | 87 | 190 | 1080 |  |  | 
6 | Cc1c(-c2ccccc2)oc2c(C(=O)OC(C)(C)CN3CCCCC3)cccc2c1=O [Active compound 5, 1,1-dimethyl-2-(N-piperidino)ethyl-3-methylflavone-8-carboxylate] | 8.6 | 2.4 | 12 | 2.8 | 96 | 91 |  |  |  |  | 
7 | Cc1c(-c2ccccc2)oc2c(C(=O)OC3CCCN(C)C3)cccc2c1=O.Cl (centres unmarked) [Active compound 11, N-methyl-3-piperidyl 3-methylflavone-8-carboxylate hydrochloride] |  |  |  |  | 100 | 100 | 360 | 770 |  |  | 
8 | Cc1c(-c2ccccc2)oc2c(C(=O)OC(C)CCN3CCCCC3)cccc2c1=O (centres unmarked) [Active compound 2, 1-methyl-3-(N-piperidino)propyl] | 16 | 6.2 |  |  | 100 | 100 | 160 | 690 |  |  | 
9 | Cc1c(-c2ccccc2)oc2c(C(=O)OC(C)CN3CCCCC3)cccc2c1=O (centres unmarked) [Active compound 3, 1-methyl-piperidino-ethyl] | 19 | 9.7 |  |  | 40 | 30 | 500 | 850 |  |  | 
10 | Cc1c(-c2ccccc2)oc2c(C(=O)OC3CCN(C)CC3)cccc2c1=O [Active compound 10, 1-methyl-4-piperidinyl] |  |  |  |  | 100 | 100 | 150 | 850 |  |  | 
11 | Cc1c(-c2ccccc2)oc2c(C(=O)O[C@@H]3CCCC[C@H]3N3CCCCC3)cccc2c1=O (relative stereo) [Active compound 14] |  | 7.7 |  |  |  |  |  |  |  |  | 
12 | Cc1c(-c2ccccc2)oc2c(C(=O)OCC(O)CN3CCCCC3)cccc2c1=O (centres unmarked) [Active compound 7, 2-hydroxy-3-(N-piperidino)propyl 3-methylflavone-8-carboxylate] |  |  |  |  | 44 | 25 | 580 | 3100 |  |  | 
13 | Cc1c(-c2ccccc2)oc2c(C(=O)OCCCN3CCCCC3C)cccc2c1=O (centres unmarked) [Active compound 1, 3-(2-methyl-N-piperidino)-propyl 3-methylflavone-8-carboxylate hydrochloride] | 24 | 4 | 8.5 | 6.9 | 100 | 100 | 560 | 1860 |  |  | 
14 | Cc1c(-c2ccccc2)oc2c(C(=O)OC(CN3CCCCC3)c3ccccc3)cccc2c1=O (centres unmarked) [Active compound 4, 1-phenyl-2-piperidino-ethyl] |  | 6.7 |  |  | 68 | 34 |  |  |  |  | 
